Measured values from the NIST ThermoML archive (doi:10.1016/j.jct.2004.06.009).
Numbers after ± are expanded uncertainties.

Experiment: molar heat capacity at constant pressure
Settings: 101.33 kPa, Crystal

CCC12CC3CC(CC(C3)C1)C2 [1-ethyladamantane]
Settings | molar heat capacity at constant pressure [J/K/mol]
8.03 K | 1.395 ± 0.087
8.87 K | 1.961 ± 0.1
9.72 K | 2.621 ± 0.12
10.57 K | 3.39 ± 0.14
11.44 K | 4.278 ± 0.17
12.32 K | 5.225 ± 0.19
13.21 K | 6.255 ± 0.22
14.1 K | 7.376 ± 0.24
14.99 K | 8.556 ± 0.27
15.9 K | 9.727 ± 0.29
16.8 K | 10.96 ± 0.32
17.71 K | 12.22 ± 0.34
18.62 K | 13.48 ± 0.36
19.54 K | 14.72 ± 0.38
20.54 K | 16.13 ± 0.4
21.56 K | 17.52 ± 0.41
22.59 K | 18.89 ± 0.42
23.61 K | 20.32 ± 0.43
24.63 K | 21.67 ± 0.44
26.68 K | 24.2 ± 0.44
27.71 K | 25.4 ± 0.44
28.74 K | 26.62 ± 0.43
29.76 K | 27.84 ± 0.42
30.79 K | 29.12 ± 0.39
32.85 K | 31.29 ± 0.41
33.87 K | 32.44 ± 0.42
34.9 K | 33.5 ± 0.43
35.93 K | 34.39 ± 0.44
37.98 K | 36.32 ± 0.45
39.01 K | 37.21 ± 0.46
40.03 K | 38.15 ± 0.47
41.06 K | 39 ± 0.47
42.08 K | 39.94 ± 0.48
43.1 K | 40.64 ± 0.48
44.12 K | 41.41 ± 0.49
45.14 K | 42.16 ± 0.5
46.16 K | 42.91 ± 0.5
47.18 K | 43.59 ± 0.51
48.2 K | 44.12 ± 0.51
49.22 K | 44.8 ± 0.52
50.23 K | 45.53 ± 0.52
51.25 K | 46 ± 0.53
52.26 K | 46.77 ± 0.53
53.27 K | 47.66 ± 0.54
54.29 K | 48.36 ± 0.55
55.3 K | 49.16 ± 0.55
56.32 K | 50.02 ± 0.56
57.33 K | 50.66 ± 0.56
60.8 K | 53.31 ± 0.59
62.77 K | 54.44 ± 0.6
64.71 K | 55.94 ± 0.61
65.75 K | 56.4 ± 0.61
66.79 K | 57.48 ± 0.62
67.84 K | 57.62 ± 0.62
68.88 K | 58.33 ± 0.63
69.92 K | 59.01 ± 0.63
70.96 K | 59.56 ± 0.64
72 K | 60.08 ± 0.64
73.04 K | 60.85 ± 0.65
74.08 K | 61.29 ± 0.65
75.11 K | 62.33 ± 0.66
76.15 K | 62.98 ± 0.66
77.19 K | 63.42 ± 0.67
78.22 K | 64.33 ± 0.68
79.25 K | 64.56 ± 0.68
80.28 K | 65.4 ± 0.68
81.31 K | 66.12 ± 0.69
81.85 K | 65.93 ± 0.69
82.34 K | 66.67 ± 0.69
82.88 K | 66.84 ± 0.69
83.37 K | 67.23 ± 0.7
83.91 K | 67.62 ± 0.7
84.26 K | 67.63 ± 0.7
84.94 K | 68.15 ± 0.7
85.59 K | 68.6 ± 0.71
85.97 K | 68.8 ± 0.71
86.66 K | 69.39 ± 0.71
87 K | 69.66 ± 0.72
87.74 K | 70.12 ± 0.72
88.82 K | 70.92 ± 0.73
89.89 K | 71.56 ± 0.73
90.96 K | 72.22 ± 1.1
92.04 K | 72.9 ± 1.1
93.11 K | 73.4 ± 1.1
94.18 K | 73.82 ± 1.1
95.25 K | 75.04 ± 1.1
96.32 K | 75.51 ± 1.1
97.39 K | 76.24 ± 1.1
98.46 K | 76.81 ± 1.1
99.54 K | 77.83 ± 1.1
100.87 K | 78.38 ± 1.1
102.46 K | 79.35 ± 1.1
104.05 K | 80.35 ± 1.1
105.64 K | 81.43 ± 1.1
107.23 K | 82.56 ± 1.1
108.82 K | 83.52 ± 1.1
110.4 K | 84.71 ± 1.1
111.99 K | 85.66 ± 1.1
113.57 K | 86.76 ± 1.1
115.16 K | 87.63 ± 1.2
116.73 K | 88.67 ± 1.2
118.31 K | 89.74 ± 1.2
119.89 K | 90.68 ± 1.2
121.47 K | 91.9 ± 1.2
123.04 K | 92.76 ± 1.2
124.62 K | 93.94 ± 1.2
126.2 K | 94.87 ± 1.2
127.77 K | 96.09 ± 1.2
129.34 K | 97.09 ± 1.2
130.92 K | 97.98 ± 1.2
132.49 K | 99.07 ± 1.2
134.06 K | 100.25 ± 1.2
135.63 K | 101.16 ± 1.2
137.2 K | 102.25 ± 1.2
138.77 K | 103.19 ± 1.2
140.34 K | 104.1 ± 1.2
141.9 K | 105.44 ± 1.2
143.46 K | 106.52 ± 1.2
145.03 K | 107.47 ± 1.2
146.59 K | 108.5 ± 1.2
148.16 K | 109.54 ± 1.2
149.72 K | 110.66 ± 1.2
151.28 K | 111.92 ± 1.2
152.83 K | 112.8 ± 1.2
154.39 K | 113.97 ± 1.3
155.94 K | 114.98 ± 1.3
157.5 K | 116.23 ± 1.3
159.05 K | 117.17 ± 1.3
160.6 K | 118.16 ± 1.3
162.16 K | 119.21 ± 1.3
163.71 K | 120.38 ± 1.3
165.26 K | 121.36 ± 1.3
166.82 K | 122.47 ± 1.3
168.37 K | 123.67 ± 1.3
169.92 K | 124.78 ± 1.3
171.47 K | 125.84 ± 1.3
173.02 K | 126.95 ± 1.3
174.57 K | 128.01 ± 1.3
